US9732094B2, “Arylquinazolines” (Merck Patent GmbH, priority 2013, dated 2017)
Read-outs that look alike come from different tables or passages of the source.

Tests used:
DNA-PK = DNA-PK (Homo sapiens (Human), UniProt P78527); test: DNA-PK assay (biochemical), flashplate 33P-ATP kinase assay; details: biochemical DNA-PK assay
Summary of the method: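 Radiometric kinase reaction in streptavidin-coated flashplates, stopped with 200 mM EDTA, then 30 min room-temperature incubation and saline washes.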

[1] = target: DNA-PK phosphorylation at serine 2056 (Homo sapiens (Human), UniProt P78527); test: DNA-PK phosphorylation at serine 2056 (cellular), bleomycin-treated HCT116 cells, ELISA; assay type: cell-based; details: cellular DNA-PK phosphorylation at serine 2056, HCT116; read-out: IC50 pDNA-PK
Summary of the method: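 HCT116, MEM alpha + 10% FCS, 37 °C/10% CO2, seeded o/n. Cpd + 10 μM bleomycin, 6 h. ELISA, chemiluminescence; phospho/total DNA-PKcs ratio, DMSO = blank.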

Kv11.1 (hERG) = Kv11.1 (hERG) (Homo sapiens (Human), UniProt Q12809); test: Kv11.1 (hERG) ion channel activity (patch clamp assay), HEK293 cells transfected with hERG gene; details: hERG patch clamp assay (cells without asterisk)
Chain of Kv11.1 (hERG) (Q12809 whole entry): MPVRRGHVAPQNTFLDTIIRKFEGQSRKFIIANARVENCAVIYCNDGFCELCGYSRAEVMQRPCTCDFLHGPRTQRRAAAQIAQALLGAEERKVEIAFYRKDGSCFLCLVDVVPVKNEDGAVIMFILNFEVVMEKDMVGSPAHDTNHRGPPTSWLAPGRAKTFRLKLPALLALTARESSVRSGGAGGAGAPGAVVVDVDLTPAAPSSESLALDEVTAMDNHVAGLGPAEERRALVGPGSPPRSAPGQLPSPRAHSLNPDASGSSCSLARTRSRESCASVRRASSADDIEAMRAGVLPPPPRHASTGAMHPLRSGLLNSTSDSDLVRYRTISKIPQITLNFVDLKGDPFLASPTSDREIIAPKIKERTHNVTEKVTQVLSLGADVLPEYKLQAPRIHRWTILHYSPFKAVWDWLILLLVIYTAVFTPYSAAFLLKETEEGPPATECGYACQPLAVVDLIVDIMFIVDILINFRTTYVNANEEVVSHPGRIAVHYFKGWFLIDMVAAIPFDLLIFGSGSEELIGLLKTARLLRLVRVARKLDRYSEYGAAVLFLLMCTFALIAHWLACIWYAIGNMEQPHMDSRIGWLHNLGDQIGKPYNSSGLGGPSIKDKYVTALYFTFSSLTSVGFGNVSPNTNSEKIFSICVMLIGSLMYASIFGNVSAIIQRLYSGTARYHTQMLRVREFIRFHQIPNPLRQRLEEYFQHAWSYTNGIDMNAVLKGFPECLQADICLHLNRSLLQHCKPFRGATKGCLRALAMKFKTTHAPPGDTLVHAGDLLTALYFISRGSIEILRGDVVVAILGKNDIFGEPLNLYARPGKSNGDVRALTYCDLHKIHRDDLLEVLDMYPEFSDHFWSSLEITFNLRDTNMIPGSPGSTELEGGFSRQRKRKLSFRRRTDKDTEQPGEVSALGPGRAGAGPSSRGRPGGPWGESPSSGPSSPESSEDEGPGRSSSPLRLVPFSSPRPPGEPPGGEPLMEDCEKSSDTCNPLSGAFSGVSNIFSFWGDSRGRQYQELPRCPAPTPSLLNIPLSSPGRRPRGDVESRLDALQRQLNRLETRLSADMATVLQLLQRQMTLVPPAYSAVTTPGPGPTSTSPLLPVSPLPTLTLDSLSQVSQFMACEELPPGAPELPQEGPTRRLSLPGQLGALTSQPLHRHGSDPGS

IC50 (DNA-PK) [nM]	IC50 [1] [nM]	Compound	Ki (Kv11.1 (hERG); Ki [Kv1.11 hERG]) [nM]	Ki (Kv11.1 (hERG); read-out: Ki [Kv1.11 hERG]) [nM]
3 to 7	500 to 5000	OC(c1cc(-c2ncnc3cc(N4CCOCC4)ccc23)ccc1Cl)c1ncnc2occc12 (stereo not drawn) [Example 416, [2-Chloro-5-(7-morpholin-4-yl-quinazolin-4-yl)-phenyl]furo[2,3-d}-pyrimidin-4-yl-methanol]	10000 to 15000	–
7 to 30	500 to 5000	Cc1cncnc1C(O)c1cc(-c2ncnc3cc(N4CCOCC4)ccc23)ccc1Cl (stereo not drawn) [Example 417, [2-Chloro-5-(7-morpholin-4-yl-quinazolin-4-yl)-phenyl]-(5-methyl-pyrimidin-4-yl)-methanol]	15000 to 25000	–
7 to 30	500 to 5000	Cc1cncnc1C(O)c1cc(-c2ncnc3cc(N4CCOCC4)ccc23)ccc1Cl (stereo not drawn) [Example 418, [2-Chloro-5-(7-morpholin-4-yl-quinazolin-4-yl)-phenyl]-(5-methyl-pyrimidin-4-yl)-methanol]	–	> 25000
7 to 30	500 to 5000	Cc1cncnc1C(O)c1cc(-c2ncnc3cc(N4CCOCC4)ccc23)ccc1Cl (stereo not drawn) [Example 419, [2-Chloro-5-(7-morpholin-4-yl-quinazolin-4-yl)-phenyl]-(5-methyl-pyrimidin-4-yl)-methanol]	–	15000 to 25000
7 to 30	5000 to 10000	Cn1cnc2c(C(O)c3ccc(F)c(-c4ncnc5cc(N6CCOCC6)ccc45)c3)ncnc21 (stereo not drawn) [Example 420, [4-Fluoro-3-(7-morpholin-4-yl-quinazolin-4-yl)-phenyl]-(9-methyl-9H-purin-6-yl)-methanol]	–	> 25000
7 to 30	500 to 5000	Cn1cnc2c(C(O)c3cc(-c4ncnc5cc(N6CCOCC6)ccc45)c(F)cc3F)ncnc21 (stereo not drawn) [Example 421, [2.4-Difluoro-5-(7-morpholin-4-yl-quinazolin-4-yl)-phenyl]-(9-methyl-9H-purin-6-yl)-methanol]	–	> 25000
> 30	10000 to 30000	CN1CCN(c2nccnc2C(O)c2ccc(F)c(-c3ncnc4cc(N5CCOCC5)ccc34)c2)C1=O (stereo not drawn) [Example 424, 1-(3-{[4-Fluoro-3-(7-morpholin-4-yl-quinazolin-4-yl)-phenyl]hydroxy-methyl}pyrazin-2-yl)-3-methyl-imidazolidin-2-one]	–	> 25000
> 30	10000 to 30000	O=C1CCCN1c1nccnc1C(O)c1ccc(F)c(-c2ncnc3cc(N4CCOCC4)ccc23)c1 (stereo not drawn) [Example 425, 1-(3-{[4-Fluoro-3-(7-morpholin-4-yl-quinazolin-4-yl)-phenyl]hydroxy-methyl}pyrazin-2-yl)-pyrrolidin-2-one]	–	> 25000
7 to 30	500 to 5000	Cc1nccnc1C(O)c1cc(-c2ncnc3cc(N4CCOCC4)ccc23)ccc1Cl (stereo not drawn) [Example 426, [2-Chloro-5-(7-morpholin-4-yl-quinazolin-4-yl)-phenyl]-(3-methyl-pyrazin-2-yl)-methanol]	–	> 25000
7 to 30	500 to 5000	Cc1nccnc1C(O)c1cc(-c2ncnc3cc(N4CCOCC4)ccc23)ccc1Cl (stereo not drawn) [Example 427, [2-Chloro-5-(7-morpholin-4-yl-quinazolin-4-yl)-phenyl]-(3-methyl-pyrazin-2-yl)-methanol]	15000 to 25000	–
7 to 30	< 500	Cc1nccnc1C(O)c1cc(-c2ncnc3cc(N4CCOCC4)ccc23)ccc1Cl (stereo not drawn) [Example 428, [2-Chloro-5-(7-morpholin-4-yl-quinazolin-4-yl)-phenyl]-(3-methyl-pyrazin-2-yl)-methanol]	10000 to 15000	–
< 3	< 500	OC(c1cc(-c2ncnc3cc(N4CCOCC4)ccc23)c(F)cc1Cl)c1ncnc2sccc12 (stereo not drawn) [Example 429, [2-Chloro-4-fluoro-5-(7-morpholin-4-yl-quinazolin-4-yl)-phenyl]thieno[2,3-d}-pyrimidin-4-yl-methanol]	–	< 10000
3 to 7	< 500	OC(c1cc(-c2ncnc3cc(N4CCOCC4)ccc23)ccc1Cl)c1ncnc2sccc12 (stereo not drawn) [Example 430, [2-Chloro-5-(7-morpholin-4-yl-quinazolin-4-yl)-phenyl]thieno[2,3-d}-pyrimidin-4-yl-methanol]	–	> 25000
7 to 30	500 to 5000	OC(c1cc(-c2ncnc3cc(N4CCOCC4)ccc23)ccc1Cl)c1ncnc2ccoc12 (stereo not drawn) [Example 432, [2-Chloro-5-(7-morpholin-4-yl-quinazolin-4-yl)-phenyl]furo[3,2-d}-pyrimidin-4-yl-methanol]	–	10000 to 15000
7 to 30	500 to 5000	Cn1cnc2ncnc(C(O)c3ccc(F)c(-c4ncnc5cc(N6CCOCC6)ccc45)c3)c21 (stereo not drawn) [Example 433, [4-Fluoro-3-(7-morpholin-4-yl-quinazolin-4-yl)-phenyl]-(7-methyl-7H-purin-6-yl)-methanol]	–	> 25000
< 3	< 500	OC(c1ccc(F)c(-c2ncnc3cc(N4CCOCC4)ccc23)c1)c1ncnc2occc12 (stereo not drawn) [Example 434, [4-Fluoro-3-(7-morpholin-4-yl-quinazolin-4-yl)-phenyl]furo[2,3-d}-pyrimidin-4-yl-methanol]	–	> 25000
3 to 7	< 500	Cn1c(C(O)c2cc(-c3ncnc4cc(N5CCOCC5)ccc34)c(F)cc2Cl)cccc1=O (stereo not drawn) [Example 435, 6-{[2-Chloro-4-fluoro-5-(7-morpholin-4-yl-quinazolin-4-yl)-phenyl]hydroxy-methyl}-l-methyl-1H-pyridin-2-one]	–	> 25000
3 to 7	500 to 5000	Cn1c(C(O)c2cc(-c3ncnc4cc(N5CCOCC5)ccc34)c(F)cc2F)cccc1=O (stereo not drawn) [Example 436, 6-{[2,4-Difluoro-5-(7-morpholin-4-yl-quinazolin-4-yl)-phenyl]hydroxy-methyl}-1-methyl-1H-pyridin-2-one]	–	> 25000
< 3	< 500	OC(c1ccc(F)c(-c2ncnc3cc(N4CCOCC4)ccc23)c1)c1ncnc2sccc12 (stereo not drawn) [Example 437, [4-Fluoro-3-(7-morpholin-4-yl-quinazolin-4-yl)-phenyl]thieno[2,3-d}-pyrimidin-4-yl-methanol]	10000 to 15000	–
< 3	< 500	OC(c1ccc(F)c(-c2ncnc3cc(N4CCOCC4)ccc23)c1)c1ncnc2ccsc12 (stereo not drawn) [Example 438, [4-Fluoro-3-(7-morpholin-4-yl-quinazolin-4-yl)-phenyl]thieno[3,2-d}-pyrimidin-4-yl-methanol]	10000 to 15000	–
< 3	< 500	OC(c1cc(-c2ncnc3cc(N4CCOCC4)ccc23)c(F)cc1F)c1ncnc2ccsc12 (stereo not drawn) [Example 439, [2,4-Difluoro-5-(7-morpholin-4-yl-quinazolin-4-yl)-phenyl]thieno[3,2-d}-pyrimidin-4-yl-methanol]	10000 to 15000	–
< 3	< 500	OC(c1cc(-c2ncnc3cc(N4CCOCC4)ccc23)c(F)cc1Cl)c1ncnc2ccoc12 (stereo not drawn) [Example 440, [2-Chloro-4-fluoro-5-(7-morpholin-4-yl-quinazolin-4-yl)-phenyl]furo[3,2-d}-pyrimidin-4-yl-methanol]	15000 to 25000	–
< 3	< 500	OC(c1cc(-c2ncnc3cc(N4CCOCC4)ccc23)c(F)cc1Cl)c1ncnc2ccoc12 (stereo not drawn) [Example 441, [2-Chloro-4-fluoro-5-(7-morpholin-4-yl-quinazolin-4-yl)-phenyl]furo[3,2-d}-pyrimidin-4-yl-methanol]	10000 to 15000	–
< 3	< 500	OC(c1ccc(F)c(-c2ncnc3cc(N4CCOCC4)ccc23)c1)c1ncnc2ccoc12 (stereo not drawn) [Example 442, [4-Fluoro-3-(7-morpholin-4-yl-quinazolin-4-yl)-phenyl]furo[3,2-d}-pyrimidin-4-yl-methanol]	–	> 25000
< 3	500 to 5000	OC(c1cc(-c2ncnc3cc(N4CCOCC4)ccc23)c(F)cc1F)c1ncnc2ccoc12 (stereo not drawn) [Example 444, [2,4-Difluoro-5-(7-morpholin-4-yl-quinazolin-4-yl)-phenyl]furo[3,2-d}-pyrimidin-4-yl-methanol]	–	> 25000
< 3	500 to 5000	COc1cncnc1C(O)c1cc(-c2ncnc3cc(N4CCOCC4)ccc23)c(F)cc1Cl (stereo not drawn) [Example 447, [2-Chloro-4-fluoro-5-(7-morpholin-4-yl-quinazolin-4-yl)-phenyl]-(5-methoxy-pyrimidin-4-yl)-methanol]	10000 to 15000	–
< 3	500 to 5000	COc1cncnc1C(O)c1cc(-c2ncnc3cc(N4CCOCC4)ccc23)c(F)cc1F (stereo not drawn) [Example 448, [2,4-Difluoro-5-(7-morpholin-4-yl-quinazolin-4-yl)-phenyl]-(5-methoxy-pyrimidin-4-yl)-methanol]	10000 to 15000	–

Compound	IC50 (DNA-PK) [nM]	IC50 [1] [nM]	Ki (Kv11.1 (hERG); Ki [Kv1.11 hERG]) [nM]	Ki (Kv11.1 (hERG); read-out: Ki [Kv1.11 hERG]) [nM]
COc1nccnc1C(O)c1cc(-c2ncnc3cc(N4CCOCC4)ccc23)ccc1Cl (stereo not drawn) [Example 422, [2-Chloro-5-(7-morpholin-4-yl-quinazolin-4-yl)-phenyl]-(3-methoxy-pyrazin-2-yl)-methanol]	3 to 7	500 to 5000	–	10000 to 15000
Cn1cnc2ncnc(C(O)c3cc(-c4ncnc5cc(N6CCOCC6)ccc45)c(F)cc3Cl)c21 (stereo not drawn) [Example 423, [2-Chloro-4-fluoro-5-(7-morpholin-4-yl-quinazolin-4-yl)-phenyl]-(7-methyl-7H-purin-6-yl)-methanol]	7 to 30	5000 to 10000	–	> 25000
